Biological target: T1, xanthine oxidase (XO) (Bos taurus, UniProt P80457)
T1 construct: gene XDH
Test: biolayer interferometry, biotinylated XO on SA sensor (also activates the purified enzyme, EC50 […])
Assay type: binding

T1 sequence (P80457 2-1332): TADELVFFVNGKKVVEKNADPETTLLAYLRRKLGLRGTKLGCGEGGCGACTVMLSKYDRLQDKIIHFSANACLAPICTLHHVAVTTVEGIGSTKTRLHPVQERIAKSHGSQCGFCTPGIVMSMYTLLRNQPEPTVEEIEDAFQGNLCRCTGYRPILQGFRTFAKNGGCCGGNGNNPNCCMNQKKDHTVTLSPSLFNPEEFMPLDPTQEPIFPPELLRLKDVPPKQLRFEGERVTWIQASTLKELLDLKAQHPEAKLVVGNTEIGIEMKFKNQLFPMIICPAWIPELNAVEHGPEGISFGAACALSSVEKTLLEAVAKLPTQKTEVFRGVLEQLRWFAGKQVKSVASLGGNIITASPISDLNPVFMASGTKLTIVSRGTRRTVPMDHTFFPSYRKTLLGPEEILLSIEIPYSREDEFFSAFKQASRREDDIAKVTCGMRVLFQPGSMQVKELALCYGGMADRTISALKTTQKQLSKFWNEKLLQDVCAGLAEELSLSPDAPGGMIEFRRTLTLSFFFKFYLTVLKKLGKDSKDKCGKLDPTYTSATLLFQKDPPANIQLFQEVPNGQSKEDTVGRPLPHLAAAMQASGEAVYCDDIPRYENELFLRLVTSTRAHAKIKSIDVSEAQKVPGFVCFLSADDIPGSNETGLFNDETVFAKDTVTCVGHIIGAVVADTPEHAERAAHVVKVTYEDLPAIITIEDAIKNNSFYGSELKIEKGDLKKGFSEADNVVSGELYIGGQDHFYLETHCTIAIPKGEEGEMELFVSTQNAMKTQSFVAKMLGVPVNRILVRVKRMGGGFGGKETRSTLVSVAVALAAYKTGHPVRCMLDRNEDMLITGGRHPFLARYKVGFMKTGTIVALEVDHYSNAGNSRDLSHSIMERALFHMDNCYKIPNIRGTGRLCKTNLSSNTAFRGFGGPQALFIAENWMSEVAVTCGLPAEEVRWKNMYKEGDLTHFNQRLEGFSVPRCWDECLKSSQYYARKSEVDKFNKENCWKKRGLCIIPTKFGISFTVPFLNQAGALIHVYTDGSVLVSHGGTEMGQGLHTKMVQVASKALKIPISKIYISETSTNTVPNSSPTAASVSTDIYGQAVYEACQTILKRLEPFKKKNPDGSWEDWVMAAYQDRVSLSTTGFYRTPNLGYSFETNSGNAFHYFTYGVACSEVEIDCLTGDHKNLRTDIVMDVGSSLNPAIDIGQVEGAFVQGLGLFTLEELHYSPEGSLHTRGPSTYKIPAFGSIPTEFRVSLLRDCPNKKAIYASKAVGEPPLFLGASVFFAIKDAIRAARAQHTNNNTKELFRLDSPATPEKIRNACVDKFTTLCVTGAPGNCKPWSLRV

Question: For `CC1=CC(=O)c2c(O)cccc2C1=O` [PLB, Plumbagin], which Kd is on record?
Answer: Its Kd is 499 nM.
